Measured values reported in patent US11919901B2 (Syndax Pharmaceuticals, Inc., priority 2021, dated 2024).

target: human Menin and N-terminal portion of human MLL (amino acids 4-43) (Homo sapiens (Human), UniProt O00255); experiment: Menin-MLL competition assay (HTRF); assay type: binding; conditions: 1 hr incubation
Excerpt: Menin-MLL is a competition assay between human Menin and N-terminal portion of human MLL representing amino acids 4-43 of the protein. The interaction between Menin and MLL peptide was monitored by HTRF employing Terbium labeled anti-His6 antibody directed to the N-terminal His6-tag on recombinant Menin and FITC group covalently attached to the MLL peptide. The N-terminal fragment of MLL, retained in all MLL fusion proteins, is involved in the interactions with Menin, and this protein-protein interaction is critical for the MLL fusion proteins mediated leukemogenic transformations.
For IC50 determination test compounds were prepared as 10 mM DMSO stock solutions. Considering DMSO as the vehicle in the assay system. Lower sub-stocks of 50 μM were prepared from the 10 mM stock solution. To test the compounds in assay, 3.16-fold serial dilutions are made in 100% DMSO. Mid-stock of 50× compounds (50 μM) were serially diluted (3.16 fold) in 100% DMSO in Polypropylene plate. In assay plate 1 micro-litre of the previously prepared compound dilution was stamped. H-FL-Menin diluted to 4 nM in assay buffer (50 mM Tris-HCl, pH 7.4, 50 mM NaCl, freshly prepared 1 mM DTT, 0.01% BSA, 0.005% Triton X-100) was pre-incubated with 8 nM anti-His6-Tb for 30 min at room temperature. […]

Chain of human Menin and N-terminal portion of human MLL (amino acids 4-43) (O00255 whole entry, the tested form may be a part): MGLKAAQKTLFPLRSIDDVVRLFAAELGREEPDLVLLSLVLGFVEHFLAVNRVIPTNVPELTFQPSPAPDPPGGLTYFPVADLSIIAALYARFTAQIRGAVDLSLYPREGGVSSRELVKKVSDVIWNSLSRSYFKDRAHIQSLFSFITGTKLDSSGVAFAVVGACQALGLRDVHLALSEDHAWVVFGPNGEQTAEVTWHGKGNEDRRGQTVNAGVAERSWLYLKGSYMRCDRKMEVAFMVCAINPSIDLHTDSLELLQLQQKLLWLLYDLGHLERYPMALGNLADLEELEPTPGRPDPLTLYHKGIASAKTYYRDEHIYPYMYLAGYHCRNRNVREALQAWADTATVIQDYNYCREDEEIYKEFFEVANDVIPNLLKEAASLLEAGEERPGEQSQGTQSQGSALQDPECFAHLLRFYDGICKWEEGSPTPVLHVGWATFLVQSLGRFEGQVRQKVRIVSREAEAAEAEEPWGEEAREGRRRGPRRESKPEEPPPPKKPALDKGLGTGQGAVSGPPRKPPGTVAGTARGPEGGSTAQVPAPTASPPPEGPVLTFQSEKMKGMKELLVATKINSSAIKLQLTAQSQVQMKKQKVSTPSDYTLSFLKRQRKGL

Compound | IC50
CCN(C(=O)c1cc(F)ccc1Oc1cncnc1N1CC2(CCN(C[C@H]3CC[C@H](NS(=O)(=O)CC)CO3)CC2)C1)C(C)C [Example 52, N-Ethyl-2-((4-(7-(((2R,5S)-5-(ethylsulfonamido)tetrahydro-2H-pyran-2-yl)methyl)-2,7-diazaspiro[3.5]nonan-2-yl)pyrimidin-5-yl)oxy)-5-fluoro-N-isopropylbenzamide] | < 100 nM

test system: MV4-11 cells; experiment: Cell proliferation assay MV4;11 (CellTiter-Glo, 72 hours); assay type: cell-based; conditions: Homo sapiens; MV4;11 leukemia cell line, 72 hours; read-out: MV4; 11 IC50
In short: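 MV4-11 cells (MLL1-AF4 fusion) exposed 72 h at 37 °C to 8 compound concentrations, final 0.632–2000 nM. Viability by CellTiter-Glo luminescence as % of vehicle RLU; % max inhibition = 100 − viability at top concentration.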

Compound | IC50
CCN(CC)S(=O)(=O)N[C@@H]1CC[C@@H](CN2CCC3(CC2)CN(c2ncncc2Oc2ccc(F)cc2C(=O)N(C(C)C)[C@H]2CCOC2)C3)OC1 [Example 175, 2-((4-(7-(((2S,5R)-5-((N,N-Diethylsulfamoyl)amino)tetrahydro-2H-pyran-2-yl)methyl)-2,7-diazaspiro[3.5]nonan-2-yl)pyrimidin-5-yl)oxy)-5-fluoro-N-isopropyl-N-((S)-tetrahydrofuran-3-yl)benzamide] | < 100 nM
CCN(C(=O)c1cc(F)ccc1Oc1cnc(C)nc1N1CC2(CCN(C[C@@H]3CC[C@@H](NS(=O)(=O)CC)CO3)CC2)C1)C(C)C [Example 216, N-Ethyl-2-((4-(7-(((2S,5R)-5-(ethylsulfonamido)tetrahydro-2H-pyran-2-yl)methyl)-2,7-diazaspiro[3.5]nonan-2-yl)-2-methylpyrimidin-5-yl)oxy)-5-fluoro-N-isopropylbenzamide] | 100 to 1000 nM
CCN(C(=O)c1cc(F)ccc1Oc1cncnc1N1CC2(CCN(C[C@@H]3CC[C@@H](NS(=O)(=O)C(C)C)CO3)CC2)C1)C(C)C [Example 3, N-Ethyl-5-fluoro-N-isopropyl-2-((4-(7-(((2S,5R)-5-((1-methylethyl)sulfonamido)tetrahydro-2H-pyran-2-yl)methyl)-2,7-diazaspiro[3.5]nonan-2-yl)pyrimidin-5-yl)oxy)benzamide] | < 100 nM
CCCNS(=O)(=O)N[C@@H]1CC[C@@H](CN2CCC3(CC2)CN(c2ncncc2Oc2ccc(F)cc2C(=O)N(CC(F)F)C(C)C)C3)OC1 [Example 151, N-(2,2-Difluoroethyl)-5-fluoro-N-isopropyl-2-((4-(7-(((2S,5R)-5-((N-propylsulfamoyl)amino)tetrahydro-2H-pyran-2-yl)methyl)-2,7-diazaspiro[3.5]nonan-2-yl)pyrimidin-5-yl)oxy)benzamide] | < 100 nM
CC(C)N(CC(F)F)C(=O)c1cc(F)ccc1Oc1cncnc1N1CC2(CCN(C[C@@H]3CC[C@@H](NS(=O)(=O)NC4CC4)CO3)CC2)C1 [Example 149, 2-((4-(7-(((2S,5R)-5-((N-Cyclopropylsulfamoyl)amino)tetrahydro-2H-pyran-2-yl)methyl)-2,7-diazaspiro[3.5]nonan-2-yl)pyrimidin-5-yl)oxy)-N-(2,2-difluoroethyl)-5-fluoro-N-isopropylbenzamide] | < 100 nM
CCN(C(=O)c1cc(F)ccc1Oc1cncnc1N1CC2(CCN(C[C@H]3CC[C@H](NS(=O)(=O)CC)CO3)CC2)C1)C(C)C [Example 52, N-Ethyl-2-((4-(7-(((2R,5S)-5-(ethylsulfonamido)tetrahydro-2H-pyran-2-yl)methyl)-2,7-diazaspiro[3.5]nonan-2-yl)pyrimidin-5-yl)oxy)-5-fluoro-N-isopropylbenzamide] | 100 to 1000 nM
CC(C)N(C(=O)c1cc(F)ccc1Oc1cncnc1N1CC2(CCN(C[C@@H]3CC[C@@H](NS(=O)(=O)N(C)C)CO3)CC2)C1)C(C)C [Example 77, 2-((4-(7-(((2S,5R)-5-((N,N-Dimethylsulfamoyl)amino)tetrahydro-2H-pyran-2-yl)methyl)-2,7-diazaspiro[3.5]nonan-2-yl)pyrimidin-5-yl)oxy)-5-fluoro-N,N-diisopropylbenzamide] | < 100 nM
CCN(C(=O)c1cc(F)ccc1Oc1cncnc1N1CC2(CCN(C[C@@H]3CC[C@@H](NS(=O)(=O)c4cccc(C)c4)CO3)CC2)C1)C(C)C [Example 60, N-ethyl-5-fluoro-N-isopropyl-2-((4-(7-(((2S,5R)-5-((3-methylphenyl)sulfonamido)tetrahydro-2H-pyran-2-yl)methyl)-2,7-diazaspiro[3.5]nonan-2-yl)pyrimidin-5-yl)oxy)benzamide] | < 100 nM
C[C@@H]1COC[C@@H](C)N1C(=O)c1cc(F)ccc1Oc1cncnc1N1CC2(CCN(C[C@@H]3CC[C@@H](NS(=O)(=O)N(C)C)CO3)CC2)C1 [Example 123, {[(3R,6S)-6-{[2-(5-{2-[(3R,5R)-3,5-Dimethylmorpholine-4-carbonyl]-4-fluorophenoxy}pyrimidin-4-yl)-2,7-diazaspiro[3.5]nonan-7-yl]methyl}oxan-3-yl]sulfamoyl}dimethylamine] | < 100 nM
CCS(=O)(=O)N[C@@H]1CC[C@@H](CN2CCC3(CC2)CN(c2ncnnc2Oc2ccc(F)cc2C(=O)N(CC(F)F)C(C)C)C3)OC1 [Example 185, N-(2,2-Difluoroethyl)-2-((5-(7-(((2S,5R)-5-(ethylsulfonamido)tetrahydro-2H-pyran-2-yl)methyl)-2,7-diazaspiro[3.5]nonan-2-yl)-1,2,4-triazin-6-yl)oxy)-5-fluoro-N-isopropylbenzamide] | < 100 nM
CC(C)NS(=O)(=O)N[C@@H]1CC[C@@H](CN2CCC3(CC2)CN(c2ncncc2Oc2ccc(F)cc2C(=O)N(CC(F)F)C(C)C)C3)OC1 [Example 150, N-(2,2-Difluoroethyl)-5-fluoro-N-isopropyl-2-((4-(7-(((2S,5R)-5-((N-isopropylsulfamoyl)amino)tetrahydro-2H-pyran-2-yl)methyl)-2,7-diazaspiro[3.5]nonan-2-yl)pyrimidin-5-yl)oxy)benzamide] | < 100 nM
CCN(C(=O)c1cc(F)ccc1Oc1cncnc1N1CC2(CCN(C[C@@H]3CC[C@@H](NS(=O)(=O)N(C)CC)CO3)CC2)C1)C(C)C [Example 140, N-Ethyl-2-((4-(7-(((2S,5R)-5-((N-ethyl-N-methylsulfamoyl)amino)tetrahydro-2H-pyran-2-yl)methyl)-2,7-diazaspiro[3.5]nonan-2-yl)pyrimidin-5-yl)oxy)-5-fluoro-N-isopropylbenzamide] | < 100 nM
CCN(C(=O)c1cc(F)ccc1Oc1cncnc1N1CC2(CCN(C[C@@H]3CC[C@@H](NS(=O)(=O)c4ccccc4Cl)CO3)CC2)C1)C(C)C [Example 59, 2-((4-(7-(((2S,5R)-5-((2-Chlorophenyl)sulfonamido)tetrahydro-2H-pyran-2-yl)methyl)-2,7-diazaspiro[3.5]nonan-2-yl)pyrimidin-5-yl)oxy)-N-ethyl-5-fluoro-N-isopropylbenzamide] | < 100 nM
CCN(C(=O)c1cc(F)ccc1Oc1cncnc1N1CC2(CCN(C[C@@H]3CC[C@@H](NC(=O)NCC(F)(F)F)CO3)CC2)C1)C(C)C [Example 37, N-Ethyl-5-fluoro-N-isopropyl-2-((4-(7-(((2S,5R)-5-(3-(2,2,2-trifluoroethyl)ureido)tetrahydro-2H-pyran-2-yl)methyl)-2,7-diazaspiro[3.5]nonan-2-yl)pyrimidin-5-yl)oxy)benzamide] | < 100 nM
CC(C)N(CC(F)F)C(=O)c1cc(F)ccc1Oc1cncnc1N1CC2(CCN(C[C@@H]3CC[C@@H](NS(N)(=O)=O)CO3)CC2)C1 [Example 240, N-(2,2-Difluoroethyl)-5-fluoro-N-isopropyl-2-((4-(7-(((2S,5R)-5-(sulfamoylamino)tetrahydro-2H-pyran-2-yl)methyl)-2,7-diazaspiro[3.5]nonan-2-yl)pyrimidin-5-yl)oxy)benzamide] | < 100 nM
